Data on 3 molecules can be found in patent publication US12077503B2, “Substituted cyclic amides and their use as herbicides” (FMC CORPORATION, priority 2015, dated 2024).

What all share (type): in vivo
Test [1] deals with giant foxtail (Setaria faberii). As to the kind of experiment: Test A preemergence. Conditions: Setaria faberi, pre-emergence, 240 h, preemergence, 0 to 100 scale where 0 is no effect and 100 is complete control, read-out: Foxtail, Giant plant response rating; for pest or weed control at 125 g/ha: 125 g ai/ha, visual injury rating, approximately 10 d; for pest or weed control at 500 g/ha: 500 g ai/ha. An outline of the steps: (§1)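 Each rating is a visual injury score from 0 to 100 given about 10 d after treatment, judged against untreated controls kept alongside in the greenhouse. In loam soil–sand blend, seeds got a preemergence directed soil spray, while postemergence plants were 2 to 10 cm tall at spraying.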

In test [2] the test system is barnyardgrass (Echinochloa crus-galli). The test can be described thus: Test A preemergence. As to conditions: Echinochloa crus-galli, pre-emergence, 240 h, preemergence, 0 to 100 scale where 0 is no effect and 100 is complete control, read-out: Barnyardgrass plant response rating; for pest or weed control at 125 g/ha: 125 g ai/ha, visual injury rating, approximately 10 d; for pest or weed control at 500 g/ha: 500 g ai/ha. An outline of the steps:
as §1

Another test concerns Kochia (Kochia scoparia). The test can be described thus: Test A preemergence. Conditions: Bassia scoparia, pre-emergence, 240 h, preemergence, 0 to 100 scale where 0 is no effect and 100 is complete control, read-out: Kochia plant response rating; for pest or weed control at 125 g/ha: 125 g ai/ha, visual injury rating, approximately 10 d; for pest or weed control at 500 g/ha: 500 g ai/ha. The method, boiled down: as §1

Test [3] deals with ryegrass, Italian (Italian ryegrass, Lolium multiflorum). The test can be described thus: Test A preemergence. Conditions: Lolium multiflorum, pre-emergence, 240 h, preemergence, 0 to 100 scale where 0 is no effect and 100 is complete control, read-out: Ryegrass, Italian plant response rating; for pest or weed control at 125 g/ha: 125 g ai/ha, visual injury rating, approximately 10 d; for pest or weed control at 500 g/ha: 500 g ai/ha. An outline of the steps: as §1

Test [4] relates to pigweed (Amaranthus retroflexus). The test can be described thus: Test A preemergence. As to conditions: Amaranthus retroflexus, pre-emergence, 240 h, preemergence, 0 to 100 scale where 0 is no effect and 100 is complete control, read-out: Pigweed plant response rating; for pest or weed control at 125 g/ha: 125 g ai/ha, visual injury rating, approximately 10 d; for pest or weed control at 500 g/ha: 500 g ai/ha.

Test [5] relates to ragweed (common ragweed, Ambrosia elatior). The test can be described thus: Test A preemergence. Conditions: Ambrosia artemisiifolia, pre-emergence, 240 h, preemergence, 0 to 100 scale where 0 is no effect and 100 is complete control, read-out: Ragweed plant response rating; for pest or weed control at 125 g/ha: 125 g ai/ha, visual injury rating, approximately 10 d; for pest or weed control at 500 g/ha: 500 g ai/ha. An outline of the steps: as §1

Test [6] relates to giant foxtail (Setaria faberii). As to the kind of experiment: Test A postemergence. As to conditions: Setaria faberi, post-emergence, 240 h; for pest or weed control at 125 g/ha: 125 g ai/ha, visual injury vs untreated controls after approx. 10 d, 0 = no effect, 100 = complete control, read-out: Foxtail, Giant plant response rating (0 to 100 scale); for pest or weed control at 500 g/ha: 500 g ai/ha. The method, boiled down:
as §1

Test [7] concerns barnyardgrass (Echinochloa crus-galli). The test can be described thus: Test A postemergence. Conditions: Echinochloa crus-galli, post-emergence, 240 h; for pest or weed control at 125 g/ha: 125 g ai/ha, visual injury vs untreated controls after approx. 10 d, 0 = no effect, 100 = complete control, read-out: Barnyardgrass plant response rating (0 to 100 scale); for pest or weed control at 500 g/ha: 500 g ai/ha. An outline of the steps: as §1

Test [8] has as its system ryegrass, Italian (Italian ryegrass, Lolium multiflorum). The test can be described thus: Test A postemergence. As to conditions: Lolium multiflorum, post-emergence, 240 h; for pest or weed control at 125 g/ha: 125 g ai/ha, visual injury vs untreated controls after approx. 10 d, 0 = no effect, 100 = complete control, read-out: Ryegrass, Italian plant response rating (0 to 100 scale); for pest or weed control at 500 g/ha: 500 g ai/ha. The method, boiled down: as §1

Test [9] deals with pigweed (Amaranthus retroflexus). The test can be described thus: Test A postemergence. As to conditions: Amaranthus retroflexus, post-emergence, 240 h; for pest or weed control at 125 g/ha: 125 g ai/ha, visual injury vs untreated controls after approx. 10 d, 0 = no effect, 100 = complete control, read-out: Pigweed plant response rating (0 to 100 scale); for pest or weed control at 500 g/ha: 500 g ai/ha. An outline of the steps: as §1

For test [10], the system named is ducksalad (Heteranthera limosa). As to the kind of experiment: Test B flooded paddy test. Conditions: Heteranthera limosa, 250 g ai/ha, Flood; 0 to 100 scale where 0 is no effect and 100 is complete control; read-out: Ducksalad plant response rating. An outline of the steps:
(§2)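 Percent control, visually estimated after 13–15 d in the greenhouse on a 0–100 basis, compares treated pots with untreated ones; compound was put into paddy water 3 cm above the soil when plants had two leaves.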

For test [11], the system named is sedge, umbrella (small-flower umbrella sedge, Cyperus difformis). The test can be described thus: Test B flooded paddy test. Conditions: Cyperus difformis, 250 g ai/ha, Flood; 0 to 100 scale where 0 is no effect and 100 is complete control; read-out: Sedge, Umbrella plant response rating. An outline of the steps:
as §2

The test system of test [12] is barnyardgrass (Echinochloa crus-galli). As to the kind of experiment: Test B flooded paddy test. As to conditions: Echinochloa crus-galli, 250 g ai/ha, Flood; 0 to 100 scale where 0 is no effect and 100 is complete control; read-out: Barnyardgrass plant response rating. The method, boiled down: as §2
A further test concerns rice (Oryra sativa). The test can be described thus: Test B flooded paddy test. Conditions: Oryza sativa, 250 g ai/ha, Flood; 0 to 100 scale where 0 is no effect and 100 is complete control; read-out: Rice plant response rating. An outline of the steps:
as §2

[13] abbreviates: postemergence, 0 to 100 scale, 0 is no effect, 100 is complete control, read-out: Foxtail, Giant plant response rating.
The mark [14] stands for this setting: postemergence, 0 to 100 scale, 0 is no effect, 100 is complete control, read-out: Barnyardgrass plant response rating.
Where [15] appears, read: postemergence, 0 to 100 scale, 0 is no effect, 100 is complete control, read-out: Ryegrass, Italian plant response rating.
The mark [16] stands for this setting: postemergence, 0 to 100 scale, 0 is no effect, 100 is complete control, read-out: Pigweed plant response rating.

On to `CSc1ccccc1NC(=O)[C@H]1C(=O)NC[C@@H]1c1ccc2c(c1)OCO2` [Compound 1257], for which the pest or weed control at 125 g/ha (in [1]; in test [2]; in the test with Kochia (Kochia scoparia); in test [3]; in [4]; in test [5]) was 0% throughout. For the same molecule, the pest or weed control at 125 g/ha in test [6] (postemergence), in [7] (postemergence), in [8] (postemergence) and in test [9] (postemergence) was 0% throughout. Moreover, the pest or weed control at 500 g/ha (in [1]; in test [2]; in the test with Kochia (Kochia scoparia); in test [3]; in test [4]; in test [5]) was 0% each time. Moreover, the pest or weed control at 500 g/ha in [6] (Postemergence, visual injury, 0 to 100 scale (0 no effect, 100 complete control), approx. 10 d, read-out: Plant response rating, Foxtail, Giant) is 0%; in test [7] (Postemergence, visual injury, 0 to 100 scale (0 no effect, 100 complete control), approx. 10 d, read-out: Plant response rating, Barnyardgrass), 0%; in test [8] (Postemergence, visual injury, 0 to 100 scale (0 no effect, 100 complete control), approx. 10 d, read-out: Plant response rating, Ryegrass, Italian) it was 0%; in test [9] (Postemergence, visual injury, 0 to 100 scale (0 no effect, 100 complete control), approx. 10 d, read-out: Plant response rating, Pigweed), 0%. The pest or weed control at 250 g/ha in test [10] came out at 0%; in test [11], 0%; in test [12], 20%; with rice (Oryra sativa) it was 0%.
Turning to `CN1CC[C@H](c2ccc(C(F)(F)F)cc2)[C@@H](C(=O)Nc2cccc(F)c2F)C1=O` [Compound 1225], the pest or weed control at 125 g/ha in test [1] stood at 90%; in [2] it was 90%; in the test with Kochia (Kochia scoparia), 60%; in [3], 20%; in test [4], 30%; in test [5], 50%. The pest or weed control at 125 g/ha in test [6] (postemergence) was found to be 90%; in test [7] (postemergence), 90%; in [8] (postemergence) it was 30%; in test [9] (postemergence), 30%. Besides, the pest or weed control at 500 g/ha in test [1] was 90%; in test [2], 90%; in the test on Kochia (Kochia scoparia) it was 70%; in test [3], 40%; in test [4] it was 50%; in test [5], 60%. Moreover, the pest or weed control at 500 g/ha is 90% in [6] (setting [13]), 90% in [7] (setting [14]), 30% in [8] (setting [15]) and 40% in test [9] (setting [16]). Moreover, the pest or weed control at 250 g/ha in test [10] is 100%; in test [11], 0%; in [12], 80%; in the test with rice (Oryra sativa), 20%.
On to `CSc1ccccc1NC(=O)[C@H]1C(=O)N(C)C[C@@H]1c1cccc(C)c1` [Compound 1232], for which the pest or weed control at 125 g/ha stood at 90% in test [1]; 90% in test [2]; 70% in the test on Kochia (Kochia scoparia); 20% in test [3]; 70% in [4]; 60% in [5]. Also, the pest or weed control at 125 g/ha in [6] (postemergence) came out at 80%; in test [7] (postemergence), 80%; in test [8] (postemergence) it was 30%; in test [9] (postemergence), 0%. The pest or weed control at 500 g/ha came out at 90% in [1]; 90% in test [2]; 80% in the test with Kochia (Kochia scoparia); 60% in [3]; 90% in [4]; 80% in test [5]. The pest or weed control at 500 g/ha was 90% in test [6] (setting [13]), 80% in [7] (setting [14]), 60% in test [8] (setting [15]) and 40% in test [9] (setting [16]). Moreover, the pest or weed control at 250 g/ha was found to be 95% in test [10], 0% in [11], 55% in [12] and 0% with rice (Oryra sativa).
